Results published in patent US7977364B2, “Indazoles, benzisoxazoles and benzisothiazoles and their use as estrogenic agents” (Laboratoire Thermamex, priority 2004, dated 2011).

Key:
[1] = tested on: human breast cancer cell line MCF-7; assay: Proliferative activity in vitro (ATP luminescence, 6 days); assay type: cell-based; details: Homo sapiens, MCF7, 144 h
Outline: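 Proliferative (estrogen-like) response of MCF-7 cells held in phenol red-free DMEM with 5% charcoal-stripped serum, seeded at 4.10^3 cells/well. Compounds in estrogen-free DMEM for six days at 37 °C. Viable cells by ATP luciferase luminescence as % of control; EC50 from sigmoidal dose-response curves.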

ovariectomized rats = details: rat, in vivo
[2] = molecular target: purified full-length recombinant human ERβ (Homo sapiens, UniProt Q92731); assay: Estrogen receptor β competitive radiometric binding assay ([3H]-E2)
Sequence of purified full-length recombinant human ERβ (Q92731 whole entry): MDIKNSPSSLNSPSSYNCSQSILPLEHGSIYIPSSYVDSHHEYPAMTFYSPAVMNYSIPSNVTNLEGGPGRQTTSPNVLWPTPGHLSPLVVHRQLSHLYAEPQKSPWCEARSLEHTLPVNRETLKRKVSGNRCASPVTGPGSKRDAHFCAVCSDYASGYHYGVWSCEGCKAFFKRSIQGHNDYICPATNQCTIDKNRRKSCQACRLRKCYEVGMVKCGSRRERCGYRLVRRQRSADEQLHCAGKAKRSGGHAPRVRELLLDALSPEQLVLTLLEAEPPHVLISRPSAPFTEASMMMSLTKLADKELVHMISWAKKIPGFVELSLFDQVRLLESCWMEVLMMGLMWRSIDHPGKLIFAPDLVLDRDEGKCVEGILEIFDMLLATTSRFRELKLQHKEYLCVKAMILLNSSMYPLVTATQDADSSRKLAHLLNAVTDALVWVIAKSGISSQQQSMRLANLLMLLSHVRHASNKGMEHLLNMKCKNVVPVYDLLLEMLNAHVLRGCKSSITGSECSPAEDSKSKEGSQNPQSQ
Description: Relative binding affinities (RBA) were determined by competitive radiometric binding assays, using purified full-length recombinant human ERα and ERβ (PanVera, Madison, Wis.). […] After shaking for a few seconds and centrifugation at 1500 g and 4° C. for 10 minutes, 150 μl/well of Optiphase ‘Super Mix’ scintillation liquid was mixed with 50 μl of supernatant of each sample and the radioactivity was measured in a MicroBeta counter (Wallac, Turku, Finland). Data were evaluated by a sigmoidal dose-response curve (Prism, GraphPad Software Inc.) to estimate the concentration of competitor at half-maximal specific binding (IC50). […] The selectivity for ERα and ERβ was obtained from the ratio R of the IC50 for ERα to the IC50 for ERβ for each test compound.

**Q.** What does the source list for `Oc1ccc2c(C3CCCC3)n[nH]c2c1` [Ex 23, 3-cyclopentyl-1H-indazol-6-ol]?
**A.** activity at 1 µM ([1]; MCF-7, 10^−6 M, six days, read-out: Effect at 10^−6 M (% of control)): 176%; activity at 0.01 µM ([1]; MCF-7, 10^−8 M, six days, read-out: Effect at 10^−8 M (% of control)): 81.7%; EC50 ([1]; MCF-7, six days, read-out: Cell proliferation EC50 (nM) ± S.E.M): 376 ± 70.1 nM; side-effects on uteri (ovariectomized rats): without deleterious side-effects on uteri; IC50 [2]: 41.8 ± 7.1 nM; ligand to estrogen receptor beta ([2]; in words): potent ligand; selectivity for the human recombinant estrogen receptor β ([2]; in words): marked selectivity; RBA (%) Mean ± S.E.M, ER β ([2]; ratio of IC50s of E2 and competitor, E2 set at 100%): 10.4 ± 4.0%; R (IC50s) αβ ([2]; ratio of the IC50 for ERα to the IC50 for ERβ): 31.9
